The values below come from patent US20140255471A1, “METHOD OF TREATING BRAIN TUMORS” (Wake Forest University Health Sciences, priority 2013, published 2014).

pIC50: −log10 of the molar value. Where two headings read alike, the source gives them in different places. Where only a bound is given, the exact number is not on record here.

Series [1] concerns U138 cells. Kind of series: Flow cytometry of DNA content and cleaved caspase 3 in U138 cells. It is filed as cell-based, human. How it is done:
U138 cells were treated with 1 nM FdUMP[10] and/or 10 nM of AZD7762 for 9 or 1 h, respectively, prior to irradiation with a single dose of 6 Gy. Cells were harvested 24 h post-irradiation and analyzed for DNA content (A) and cleaved caspase 3 (B) by flow cytometry.
(In general: A flow cytometer gives signals particle by particle.)

The test system of series [2] is U138 cells. Briefly: Clonogenic survival of U138 cells. Particulars: 1 nM FdUMP[10] and/or 10 nM AZD7762, drugs removed after 72 h, colonies counted 10 days post-treatment. The series is classed as cell-based, human. The procedure: 500-2000 U138 cells were seeded into 60 mm dishes and treated with 1 nM FdUMP[10] (F1) and/or 10 nM AZD7726 (A2) and the drugs were removed after 72 h. Cells were fixed and stained with violet blue and colonies were counted using a colony counter 10 days post-treatment. […] The results are consistent with FdUMP[10]AZD7762 being synergistic at decreasing the clonogenicity of U138 cells.

For series [3], the system named is U138 cells. Kind of series: Radiosensitization of U138 cells (clonogenic, 6 Gy). It is filed as cell-based, human. As to conditions: FdUMP[10] and AZD7762 given before irradiation. The procedure: FIG. 9. Treating human glioma U138 cells with FdUMP[10] and AZD7726 enhanced their radiosensitivity. 500-2000 U138 cells were seeded into 60 mm dishes and treated with 1 nM FdUMP[10] (F1) for 9 h and 10 nM AZD7726 (A2) for 1 h prior to irradiation with a single dose of 6 Gy. Cells were fixed and stained with violet blue and colonies were counted using a colony counter at 10 days post-treatment. The study indicates combined treatment U138 with FdUMP[10] and AZD7762 sensitize cells to radiation.
Radiation is cytotoxic as a consequence of unrepaired DNA damage. […] In these studies, FdUMP[10] was administered […] prior to irradiation and AZD7762 1 h prior to radiation. Though not wishing to be bound by theory, it is thought that radiosensitization results from induction of a thymineless state following FdUMP[10] treatment and disabling of HRR and abrogation of the G2 checkpoint following AZD7762 treatment. Under these conditions, DNA repair of radiation-induced DNA damage is inhibited due to lack of thymidine while inhibiting Rad51 activation prevents HRR which is important for repair of radiation-induced DNA DSBs (Helleday 2010). Abrogating the G2-checkpoint causes cells to enter mitosis with lethally-damaged DNA enhancing the cytotoxic effects of radiation.

The test system of series [4] is primary cortical neurons. Briefly: Viability of primary cortical neuronal cultures. Particulars: 1 μM, 72 hours in culture.
Experimental: Cortical neuronal cultures were prepared using previously described protocols. […] The tissue was further dissected into smaller pieces. After washes in cold PBS without Ca^+2/Mg^+2, tissue was incubated in 0.05% trypsin in PBS without Ca^+2/Mg^+2. Tissue was then dissociated in NB media using a blue-tip pipette. Dissociated cells were layered onto a 4% BSA cushion to remove debris. Cells were plated in NB media at a density 4×10^4 cells/well in a 24 well dish. After 24 hours, media was removed and replaced with fresh media with or without 5FU or F10. After 72 hours in culture, surviving neurons were counted. To be counted a cell had to have a phase-bright cell body and at least one neurite that was at least two times the diameter of the soma. Results are expressed as percent control (Mean±SD) where control represents cultures without the addition of 5FU or F10 (n=4 individual experiments with at least two wells per condition). Statistical significance was determined with a one-way ANOVA followed by the Bonferroni post-hoc test.
Series [5] deals with primary astrocyte cultures. Briefly: Viability of primary astrocyte cultures. As to conditions: same doses as for neurons (up to 1 μM).
Series [6] relates to G48a orthotopic xenografts.
Experimental: G48a-luc were suspended into Hanks Balanced Salt Solution to a density of 10^5 cells/μL. Nude (nu/nu) 7-week old mice were obtained from NCI. Mice were anesthetized using a ketamine/xylazine mixture and placed on a small-animal, head-holding frame. A scalp incision was made to determine the drill-hole location, 1 mm right and 1 mm anterior to lambda. A 27-gauge needle attached to a 10 mL sterile Hamilton syringe (Hamilton, Reno, Nev.) was stereotactically inserted 3 mm below the dural surface and cells were injected into the deep white matter of the posterior thalamus. Cells were injected in a total of 5 μL over a five minute period. The syringe was removed two minutes after the injection was completed, retracting it at a rate of 0.5 mm per minute. After removal of the syringe, the hole was covered with cranio-plastic liquid. Animals were sutured, allowed to recover on a heating pad, and returned to their cages. Animal weight and behavior was monitored every three days.
Starting on day 21 after tumor cell implantation, mice were treated by intra-cerebral (i.c.) infusion (0.5 μL/h) of F10 at 3 concentrations (80, 120 and 160 mg/kg) for a duration of 7 days. Drug was prepared in phosphate buffered saline. Osmotic pumps (ALZET® model 1007D, Alzet, Cupertino, Calif.) were primed in sterile saline overnight at 37° C. according to manufacturer's specification. The pumps were then coupled to brain infusion kits (ALZET® model 3). Animals were anesthetized using a ketamine/xylazine mixture and placed on a small-animal head holding frame, and the location of initial injection (1 mm right and 1 mm anterior to lambda) was retraced. The cannula was then inserted to a depth of 3 mm and secured with cranio-plastic adhesive and the pump was placed subcutaneously between the shoulder blades. Animals were sutured, allowed to recover and evaluated for any motor deficits resulting from the surgical procedure. […] Animals were euthanized 24 hours post-treatment when body weight loss was above 12% or when behavior prevented normal activity.
Animals received an intraperitoneal (i.p.) injection of D-luciferin (150 mg/kg, stock solution 15 mg/mL in sterile PBS, Goldbio, St. Louis, Mo.), After 10 min, animals were anesthetized with isofluorane until non-responsive, and then placed in the imaging chamber. Three bioluminescent imaging acquisitions were collected at different exposure times (10, 60, 300 sec). Mice were allowed to recover and returned to their cages. Data were analyzed based on total photon flux emission (photons) in the region of interest over the intracranial space using Living Image software (Xenogen Corp.).
Animals were deeply anesthetized with an i.p injection of ketamine/xylazine and fixed by transcardial perfusion through the heart with PBS (pH=7.4) followed by 4% paraformaldehyde in PBS (PFA). Brains were removed and fixed overnight in 4% PFA. Brains were then cryoprotected in 30% sucrose-PBS at 4° C. for 2-3 days, Brains were embedded in tissue-freezing medium (Triangle Biomedical Sciences, Durham, N.C.) and sections were cut to a thickness of 10 μm, thawed onto SuperFrost Plus slides (Fisher, Pittsburgh, Pa.) and kept at −20° C. until further processing. Sections from vehicle- and F10-treated animals were thawed prior to exposure with primary antibodies. Endogenous peroxidase activity and non-specific biotin was quenched with Peroxide Blocking Kit and Biotin Blocking Kit, respectively (ScyTek Laboratories, Logan, Utah). Antigen retrieval was performed with 10 mM sodium citrate buffer, pH 6.0, by microwaving for 5 min. Slides were blocked with SuperBlock (ScyTek) and incubated with polyclonal EphA2 antibody (R&D Systems, Minneapolis, Minn.) overnight at 4° C.
The subject of series [7] is CNS malignancies included in the NCI 60 cell line panel. Particulars: all CNS malignancies included in the NCI 60 cell line panel; cited from earlier work.
The target of series [8] is T1, DNA Topoisomerase 1 (Top1) cleavage complex (Homo sapiens, UniProt P11387).
T1 construct: endogenous in cells; host or cells: SNB-19 and U-251 MG GBM cells
T1 sequence (P11387 2-765 limits assumed): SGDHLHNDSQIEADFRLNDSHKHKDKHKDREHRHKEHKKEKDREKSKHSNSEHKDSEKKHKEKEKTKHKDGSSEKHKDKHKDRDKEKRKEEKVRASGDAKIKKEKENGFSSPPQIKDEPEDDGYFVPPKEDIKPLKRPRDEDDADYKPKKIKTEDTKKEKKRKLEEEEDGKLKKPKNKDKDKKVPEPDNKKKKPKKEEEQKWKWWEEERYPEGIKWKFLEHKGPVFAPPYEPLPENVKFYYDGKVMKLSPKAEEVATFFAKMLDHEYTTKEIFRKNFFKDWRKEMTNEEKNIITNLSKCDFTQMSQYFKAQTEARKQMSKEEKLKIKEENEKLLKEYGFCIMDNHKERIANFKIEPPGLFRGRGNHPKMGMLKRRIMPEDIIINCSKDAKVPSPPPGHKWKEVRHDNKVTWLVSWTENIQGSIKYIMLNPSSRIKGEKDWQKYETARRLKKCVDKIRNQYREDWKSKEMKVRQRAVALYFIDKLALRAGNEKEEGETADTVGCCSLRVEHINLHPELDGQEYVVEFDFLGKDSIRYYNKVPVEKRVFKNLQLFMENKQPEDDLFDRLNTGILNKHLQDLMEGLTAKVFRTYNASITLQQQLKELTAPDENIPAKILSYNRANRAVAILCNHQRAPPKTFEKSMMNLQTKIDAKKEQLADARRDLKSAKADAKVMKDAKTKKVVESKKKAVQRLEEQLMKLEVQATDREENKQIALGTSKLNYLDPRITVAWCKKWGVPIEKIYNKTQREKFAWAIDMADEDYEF
Kind of series: In vivo complex of enzyme (ICE) bioassay. The series is classed as cell-based. As to conditions: SNB-19 and U-251 MG cells. How it is done: G48a and primary explant cells derived from patient GBM tumors were grown in RPMI 1640 (Lonza, Rockland, Me.) supplemented with 10% FBS and glucose (2 g/L). G48a-luciferase cells were produced by lentiviral infection using a GFP-tagged vector. Cells were selected using blastocydin (10 μg/mL). U-251 MG and SNB-19 cells were obtained from ATCC and grown in RPMI 1640 (Lonza, Rockland, Me.) supplemented with 10% FBS and glucose (2 g/L). U-251 MG cells were grown in DMEM supplemented with 10% FBS and non-essential amino acids. In vivo complex of enzyme (ICE) bioassays were completed using methods similar to those previously described. (Liao et al., A novel polypyrimidine antitumor agent FdUMP[10] induces thymineless death with topoisomerase I-DNA complexes. Cancer Res. 2005; 65(10:4844-4851) GBM cells were incubated with F10 at the indicated concentrations for 0-48 hrs. Thymidine (Thy) rescue was accomplished by adding Thy at 80 μM, as the 20 μM dose previously described (Wang et al., Mechanisms of acquired chemoresistance to 5-fluorouracil and tomudex: thymidylate synthase dependent and independent networks. Cancer Chemother Pharmacol. 2007; 59(6):839-845) was not effective for rescue. Cell samples were counted and equalized for cell number. Primary antibody (mouse anti-human DNA Top I, BD Pharmingen) was added at 1:500 dilution. Secondary antibody (Cell Signaling) was used at 1:1000. […]

Series [9] relates to SNB-19. As to conditions: cited from earlier work.
Series [10] has as its system G48a cells. Briefly: Cytotoxicity (cell viability) towards G48a GBM cells. It is filed as cell-based, human. As to conditions: G48a cell line; FIG. 1C.
Series [11] deals with SF-539. As to conditions: at or below lowest concentration evaluated; cited from earlier work.
For series [12], the system named is SF-295. As to conditions: at or below lowest concentration evaluated; cited from earlier work.
In series [13] the test system is CNS malignancies included in the NCI 60 cell line panel. Briefly: NCI 60 cell line screen, CNS malignancies of the panel. The series is classed as cell-based, human. Particulars: several GBM cell lines.
Series [14] concerns the target T2, thymidylate synthase (TS) (Homo sapiens, UniProt P04818).
T2 construct: harvested, and lysed by freeze-fracturing; Following centrifugation of cell lysates, supernatants were assayed for protein content and TS catalytic activity; endogenous in cells; host or cells: G48a, U-251 MG and SNB-19 GBM cells
Briefly: TS catalytic activity assay in lysates of treated GBM cells. It is filed as cell-based. As to conditions: G48a, U-251 MG and SNB-19 GBM cells; F10 10^−6 and 10^−5 M, raltitrexed 10^−6 M. The procedure: TS assays were conducted using procedures similar to those previously described. (Gmeiner et al., Enhanced DNA-directed effects of FdUMP[10] compared to 5FU. Nucleosides Nucleotides Nucleic Acids. 2004; 23(1-2):401-410.) GBM cells were plated at a density of 1.5×10^6 cells in 100 mm^2 plates. Cells were grown overnight in RPMI 1640 medium with 10% FBS. Either 5FU (Sigma), F10, or raltitrexed were then added at the indicated concentrations and the cells were incubated for 8, 16, 24, or 48 hrs, harvested, and lysed by freeze-fracturing. Following centrifugation of cell lysates, supernatants were assayed for protein content and TS catalytic activity as previously described. (Gmeiner et al., Enhanced DNA-directed effects of FdUMP[10] compared to 5FU. Nucleosides Nucleotides Nucleic Acids. 2004; 23(1-2):401-410.)

For series [15], the system named is SF-268. As to conditions: at or below lowest concentration evaluated; cited from earlier work.
The nature of series [16]: Dose-finding / tolerability upon i.c. administration. It is filed as in vivo, nude mice. From the text: The nanoscale size of F10 (length ˜3 nm), as well as its multiple negative charges, make penetration of the BBB following systemic delivery an inefficient process. Conversely, intra-cranial (i.c.) administration of F10 is expected to result in high local concentrations that may be therapeutically beneficial, particularly in light of the relatively strong cytotoxicity towards GBM cells and the minimal toxicity of F10 towards primary cortical neurons (FIG. 3A). Dose-finding studies in nude mice were performed to identify doses that were sufficiently well-tolerated to be evaluated in efficacy studies. F10 was dissolved in PBS and administered i.e. using an Alzet osmotic mini-pump over a 7 day period. Vehicle-only served as a control. […] These dose levels are considerably lower than those used in recent leukemia studies in which F10 was administered systemically (200 mg/kg qodx4) (Pardee et al., Unique dual targeting of thymidylate synthase and topoisomerase 1 by FdUMP[10] results in high efficacy against AML and low toxicity. Blood. 2012; 119(15):3561-3570), consistent with F10 being retained within the BBB upon i.c. administration.

For series [17], the system named is U-251 MG. As to conditions: cited from earlier work.
Where [18] appears, read: with irradiation 6 Gy, 1 nM FdUMP[10] 9 h and/or 10 nM AZD7762 1 h before, 24 h post-irradiation.

T2 sequence (P04818 2-313 limits assumed): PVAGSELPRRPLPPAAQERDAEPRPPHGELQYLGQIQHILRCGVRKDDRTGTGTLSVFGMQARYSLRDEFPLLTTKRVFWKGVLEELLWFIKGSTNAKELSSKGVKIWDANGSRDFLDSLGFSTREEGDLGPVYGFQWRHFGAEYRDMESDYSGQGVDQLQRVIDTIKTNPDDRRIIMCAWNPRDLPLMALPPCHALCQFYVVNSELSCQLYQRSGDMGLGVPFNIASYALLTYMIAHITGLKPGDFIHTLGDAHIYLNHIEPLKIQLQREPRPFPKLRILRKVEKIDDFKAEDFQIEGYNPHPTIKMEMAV

For `NC(=O)Nc1cc(-c2cccc(F)c2)sc1C(=O)N[C@H]1CCCNC1` [AZD7762, reference compound], the “cleaved caspase 3 (apoptosis)” value in series [1] (setting [18]) is reported as “do not result in significant percent of cleaved caspase 3”; in [1] (without irradiation, 10 nM AZD7762) it was “do not result in significant percent of cleaved caspase 3”. Besides, the survival fraction in [2] amounted to 0.80. Moreover, the radiosensitization result in series [3] is “neither FdUMP[10] nor AZD7762 are appreciably radiosensitizing”.
Consider `O=c1[nH]cc(F)c(=O)[nH]1` [5FU, 5-fluorouracil], for which the “decreased viability for cortical neurons relative to control” value in [4] was “approximately 50%”. Moreover, the “viability of primary astrocyte cultures, treated vs control” value in series [5] is given as “no apparent differences in viability”.
As a reminder, the GI50 is the concentration that inhibits growth by half. One may read the pIC50 as the negative decadic logarithm of the IC50, by convention in mol/L. The low end stands for a high IC50, the high end for a low IC50. Consider FdUMP[10] [F10], for which the “EphA2 staining, tumor-bearing side” value in series [6] (80 mg/kg) is “only trace levels of EphA2 positive staining”; in series [6] (120 mg/kg), “no EphA2 staining”. The “mean tumor volumes (%-change in photon emission)” value in [6] (120 mg/kg i.c. over 7 days, p<0.01) is recorded as “significantly decreased relative to control”. Moreover, in series [6] (120 mg/kg vs 80 mg/kg), the “extent of tumor cell necrosis (H&E)” value is “greater tumor cell necrosis than the 80 mg/kg dose”. In addition, in series [6] (160 mg/kg i.c. over 7 days), the “luminescent signal (IVIS imaging)” value is given as “did not display decreased lumincescent signal”. For the same compound, the “treatment effect by histology” value in series [6] (160 mg/kg i.c. over 7 days) was “significant treatment effect”. Besides, in series [6] (80 and 120 mg/kg i.c. over 7 days), the “tumor regression (IVIS imaging)” value was “significant tumor regression”. In addition, the “necrosis in tumor tissue (H&E)” value in series [6] (80 or 120 mg/kg i.c. over 7 days) was “extensive areas of necrosis selectively within tumor tissue”. In addition, the “necrosis in contralateral side of brain (H&E)” value in [6] (mouse, in vivo) is “no observable necrosis”. Besides, the GI50 in series [7] was under 1000 nM; in series [9], 170 nM; in series [11], at most 5 nM; in series [12], at most 5 nM; in series [15] it was at most 5 nM; in series [17], 115 nM. Moreover, in [8], the Top1CC formation entry is given as “induces Top1CC formation”. Further, the “DNA content / cell cycle” value in series [1] (1 nM FdUMP[10] and/or 10 nM AZD7762) is given as “causes G2-arrest”. Moreover, the “cleaved caspase 3 (apoptosis)” value in [1] (setting [18]) is recorded as “result predominantly in apoptotic cells”. For the same compound, the pIC50 in series [10] is about 6.00. Also, the “differential sensitivity for F10 relative to 5FU” value in series [13] is ~10,000 fold. Further, the TS inhibition entry in [14] is listed as “inhibited TS completely”. Moreover, the survival fraction in series [2] is 0.84. In addition, the well-tolerated dose entry in series [16] (i.c., osmotic mini-pump over 7 days) was “up to 200 mg/kg”. The “appearance and behaviour of mice” value in series [16] (mouse, in vivo) was “light-sensitive, with eyes partially closed, and were more lethargic than mice treated with vehicle-only”. Also, in [3], the radiosensitization result was “neither FdUMP[10] nor AZD7762 are appreciably radiosensitizing”.
For the compound `Cc1nc2ccc(CN(C)c3ccc(C(=O)N[C@@H](CCC(=O)O)C(=O)O)s3)cc2c(=O)[nH]1` [Raltitrexed, reference compound], the TS inhibition result in [14] is “effectively inhibited TS”.
